Measured values from EP2368895A1, “Ferrocenyl flavonoids” (Centre National de la Recherche Scientifique (CNRS), priority 2010, dated 2011).

System: Murine B16 melanoma cells
Conditions: for IC50: murine B16 melanoma cells, MTT, 48 h exposure time, mean ± SD of 3 determinations
Method: Murine B16 melanoma cells were grown in Dulbecco's modified essential medium (DMEM) containing 2 mM L-glutamine, 10% fetal bovine serum, 100 U/ml penicillin and 100 µg/ml streptomycin (37°C, 5% CO2). Stock solutions of the compounds were prepared in DMSO and further diluted in DMEM at the indicated concentrations with a final DMSO concentration of not exceeding 1%. Exponentially growing cells were plated onto 96-well plates at a density of 5000 cells per well in 200 µl DMEM, and 24 h later the compounds were added for another 48 h. Control wells were exposed to 1% DMSO. Viability was assessed using the MTT (1-(4,5-dimethylthiazol-2-yl)-3,5-diphenyltetrazolium) test and absorbance was read at 562 nm in a microplate reader (BioKinetics Reader, EL340) (Carmichael et al. 1987).

## 2-ferrocenyl-4H-chromen-4-one [Compound 2a]
  IC50: 33.9 ± 0.8 µM

## 6,8-dibromo-2-ferrocenyl-4H-chromen-4-one [Compound 2e]
  IC50: 13.7 ± 1 µM

## 6,8-dichloro-2-ferrocenyl-4H-chromen-4-one [Compound 2d]
  IC50: 12.1 ± 0.4 µM

## 6,8-difluoro-2-ferrocenyl-4H-chromen-4-one [Compound 2f]
  IC50: 18 ± 0.2 µM

## 6-bromo-2-ferrocenyl-4H-chromen-4-one [Compound 2c]
  IC50: 15.9 ± 0.3 µM

## 6-chloro-2-ferrocenyl-4H-chromen-4-one [Compound 2b]
  IC50: 15.6 ± 0.3 µM

## (E)-1-(2-hydroxyphenyl)-3-ferrocenylprop-2-en-1-one [Compound 1a]
  IC50: 43.7 ± 1.8 µM

## (E)-1-(3,5-dibromo-2-hydroxyphenyl)-3-ferrocenylprop-2-en-1-one [Compound 1e]
  cytotoxic activity: decrease in cytotoxic activity
  IC50: 84.2 ± 4.8 µM

## (E)-1-(3,5-dichloro-2-hydroxyphenyl)-3-ferrocenylprop-2-en-1-one [Compound 1d]
  cytotoxic activity: decrease in cytotoxic activity
  IC50: 73.6 ± 2.6 µM

## (E)-1-(3,5-difluoro-2-hydroxyphenyl)-3-ferrocenylprop-2-en-1-one [Compound 1f]
  cytotoxic activity: decrease in cytotoxic activity
  IC50: 49.4 ± 1.3 µM

## (E)-1-(5-bromo-2-hydroxyphenyl)-3-ferrocenylprop-2-en-1-one [Compound 1c]
  IC50: 44.6 ± 2.8 µM

## (E)-1-(5-chloro-2-hydroxyphenyl)-3-ferrocenylprop-2-en-1-one [Compound 1b]
  IC50: 29.5 ± 1.8 µM
